Reference: US4816448A, “Thermal isomer of difficidin and thermal isomer of oxydifficidin antibacterials” (Merck & Co., Inc., priority 1987, dated 1989)

Assays:
Proteus = experiment: Antibacterial activity, relative potency; format: cell-based; conditions: in most cases
Text: (§1) Using standard in vitro assay techniques, minimal inhibitory concentrations (MIC) have been determined for the thermal isomer of difficidin and the thermal isomer of oxydifficidin against a number of bacteria.

anaerobic bacteria = experiment: Antibacterial activity against anaerobic bacteria; format: cell-based
S. aureus = experiment: MIC, standard in vitro assay (Table I); format: cell-based, Staphylococcus aureus; conditions: in most cases
Text: as §1

Salmonella typhimurium = experiment: MIC, standard in vitro assay (Table I); format: cell-based; conditions: in most cases
Text: as §1

Serratia marcescens = experiment: MIC, standard in vitro assay (Table I); format: cell-based; conditions: in most cases
Text: as §1

aerobic microorganisms = experiment: Antibacterial activity against aerobic microorganisms; format: cell-based; conditions: aerobic microorganisms such as Pseudomonas aeruginosa and Staphylococcus aureus
Text: as §1

P. aeruginosa = experiment: MIC, standard in vitro assay (Table I); format: cell-based, Pseudomonas aeruginosa; conditions: Ps. aeruginosa; in most cases
Text: as §1

[1] = Isomerization of difficidin at 60° C., HPLC (Example IV); format: physicochemical; conditions: tetrahydrofuran
Procedure: Difficidin is stored as the potassium salt at pH7 in aqueous methanol solution at -80° C. A 0.67 ml aliquot containing 400 mcg of difficidin was evaporated to an oil and taken up in 0.2 ml of tetrahydrofuran. The sample was heated at 60° C. for 3 days.

[2] = Thermal isomerization of difficidin and oxydifficidin, equilibrium; format: physicochemical; conditions: for time to reach equilibrium with its thermal isomer / converted to thermal isomer at equilibrium: 60° C.; for converted to thermal isomer at equilibrium: suitable solvent such as water, alcohol or ethyl acetate
Procedure: Alternatively, the thermal isomers of the subject invention can be prepared by converting difficidin and oxydifficidin to the thermal isomer of difficidin and thermal isomer of oxydifficidin, respectively. Difficidin and oxydifficidin can be prepared and purified as described in U.S. Pat. No. 4,545,991. The thermal isomers can be prepared by thermally heating (to about 60° C.) the difficidin and oxydifficidin in a suitable solvent system such as water, alcohol or ethyl acetate. At 60° C., it takes about 24 hours for difficidin and oxydifficidin to reach equilibrium with its thermal isomer. At equilibrium, about 25% of the difficidin has converted to the thermal isomer and about 66% of the oxydifficidin has converted to its thermal isomer. […] The thermal isomer can then be separated from the equilibrium mixture by standard chromatographic techniques.

[3] = Isomerization of oxydifficidin at 60° C., HPLC (Example V); format: physicochemical; conditions: under argon, tetrahydrofuran
Procedure: Pure oxydifficidin was stored as the potassium salt, pH7, in aqueous methanol solution at -80° C. A 28 ml aliquot, containing 95 mg of antibiotic, was treated with 2 mg. of 2,6-di-t-butyl-phenol and evaporated to 3-4 ml. The concentrate was diluted with tetrahydrofuran to a final volume of 44 ml. The solution was heated under argon at 60° C.

Compound | effectiveness relative to thermal isomer of oxydifficidin (Proteus) | activity against anaerobic bacteria (anaerobic bacteria) | effectiveness relative to thermal isomer of oxydifficidin (S. aureus) | effectiveness relative to thermal isomer of oxydifficidin (Salmonella typhimurium) | effectiveness relative to thermal isomer of oxydifficidin (Serratia marcescens) | potency against aerobic microorganisms vs thermal isomer of oxydifficidin (aerobic microorganisms) | effectiveness relative to thermal isomer of oxydifficidin (P. aeruginosa) | Composition ([1]; 0 days) [%] | Composition ([1]; 3 days) [%] | time to reach equilibrium with its thermal isomer [2] | converted to thermal isomer at equilibrium [2] | isomerization at room temperature [2] | Composition ([3]; 17 hrs., HPLC) [%] | Composition ([3]; 24 hrs., HPLC) [%] | Composition ([3]; 41 hrs., HPLC) [%] | Composition ([3]; time 0, HPLC) [%]
C=C/C=C(\C)CCC1C/C=C\C=C(\C)C(OP(=O)(O)O)CC/C=C/C=C\C=C/CCC(C)C(=C)CC(=O)O1 (stereo not drawn) [thermal isomer of difficidin, (Z,Z,E,Z,Z,)-16-dihydroxyphosphinoxy-5,7-dimethyl-4-methylene-22-((E)-3-methyl-3,5-hexadienyl)oxacyclo-docosa-8,10,12,17,19-pentaen-2-one] | four times more effective | active against a wide spectrum of anaerobic bacteria | four times more effective | four times more effective | four times more effective | more potent than the thermal isomer of oxydifficidin | four times more effective | 2 | 24 | – | – | – | – | – | – | –
difficidin | – | – | – | – | – | – | – | 98 | 76 | about 24 hours | about 25% | some isomerization takes place | – | – | – | –
oxydifficidin [reference compound] | – | – | – | – | – | – | – | – | – | about 24 hours | about 66% | some isomerization takes place | 39 | 36 | 34 | 98
